Results as given in patent US20080292584A1 (priority 2005, published 2008).
Values joined by “and” are separate entries in the source; they are usually repeats but may differ in a detail not shown here. Equal values may be shown once. Read-outs that look alike come from different tables or passages of the source.

Legend:
CYP2C9 = CYP2C9 (Homo sapiens, UniProt P11712); assay: Metabolism of metaxalone by expressed recombinant human CYP2C9 at 5 or 20 pmol (Example 4); settings: for % Turnover Mean / [metaxalone] Mean / % Turnover % / [metaxalone]: 60 min; for % Turnover % / [metaxalone]: single replicates, listed as Metaxalone
Protocol: For CYP2C9 and CYP2D6, SUPERSOMES singly-expressing different allelic variants of the cytochrome p450 isozyme were commercially available. For each of CYP2C9 and CYP2D6, only the *1 allele was tested in these experiments. […]

CYP2C19 = CYP2C19 (Homo sapiens, UniProt P33261);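 further: CYP2C19 incubations ran for 30 minutes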
Protocol: Microsomes were prepared by differential centrifugation of liver homogenates pooled from at least ten human donors.
After a 5 minute preincubation, NADPH regenerating system (NRS) was added to initiate the reaction. CYP2A6 and CYP3A4 incubations were for 10 minutes. All other incubations were for 30 minutes.
Incubations for CYP2C8 were terminated by adding 1.0 mL of ACN, while all other incubations were terminated by adding 1.0 mL of methanol.
Vehicle control experiments were performed to establish a baseline value for enzyme activity. […] Four replicates were performed.
Two replicates were performed. […] No interference was detected in any of the metabolite assay methods used.

CYP2C8 = biological target: T1, CYP2C8 (Homo sapiens, UniProt P10632); settings: both, pH 7.4; for Mean Conc.: 60 min; for % Turnover Mean: microsomes, 1 h
T1 sequence (P10632 1-490): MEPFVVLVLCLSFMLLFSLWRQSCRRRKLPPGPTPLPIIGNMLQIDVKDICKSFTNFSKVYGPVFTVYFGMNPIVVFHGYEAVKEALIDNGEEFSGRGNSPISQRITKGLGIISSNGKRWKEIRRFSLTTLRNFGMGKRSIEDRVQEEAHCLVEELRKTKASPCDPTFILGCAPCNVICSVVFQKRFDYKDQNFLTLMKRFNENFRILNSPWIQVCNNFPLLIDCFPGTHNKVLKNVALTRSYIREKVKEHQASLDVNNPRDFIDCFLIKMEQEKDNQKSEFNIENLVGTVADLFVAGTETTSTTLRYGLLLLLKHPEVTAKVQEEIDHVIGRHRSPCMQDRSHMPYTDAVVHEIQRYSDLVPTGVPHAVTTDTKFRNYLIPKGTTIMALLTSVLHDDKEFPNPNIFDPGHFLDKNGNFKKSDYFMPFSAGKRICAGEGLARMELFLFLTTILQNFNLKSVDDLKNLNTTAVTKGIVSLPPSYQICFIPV
Protocol: Human liver microsomes pooled from 15 individuals (male and female) (Pool HMMC-PL020; CellzDirect, Inc., In Vitro Products and Services Division) were used in some experiments of this study.
% Turnover=100−{[TA(final)]/[mean of TA(0 min)]}×100,
% Inhibition of Turnover=100{1−([TA(0 min)]−[TA(final-inhibitor)])/([TA(0 min)]−[TA(final-no inhibitor)])}.
The inhibitors or vehicle control were incubated with the pooled human liver microsomes (1 mg/mL) and NADPH (1 mM) in 0.1 M phosphate buffer, pH 7.4. […] Incubations were conducted in triplicate and terminated by addition of organic solvent. Samples were extracted and analyzed by LC-MS/MS as described above.

[1] = 0.75 μM metaxalone, 20 pmol cyp

Sequence of CYP2C19 (P33261 whole entry): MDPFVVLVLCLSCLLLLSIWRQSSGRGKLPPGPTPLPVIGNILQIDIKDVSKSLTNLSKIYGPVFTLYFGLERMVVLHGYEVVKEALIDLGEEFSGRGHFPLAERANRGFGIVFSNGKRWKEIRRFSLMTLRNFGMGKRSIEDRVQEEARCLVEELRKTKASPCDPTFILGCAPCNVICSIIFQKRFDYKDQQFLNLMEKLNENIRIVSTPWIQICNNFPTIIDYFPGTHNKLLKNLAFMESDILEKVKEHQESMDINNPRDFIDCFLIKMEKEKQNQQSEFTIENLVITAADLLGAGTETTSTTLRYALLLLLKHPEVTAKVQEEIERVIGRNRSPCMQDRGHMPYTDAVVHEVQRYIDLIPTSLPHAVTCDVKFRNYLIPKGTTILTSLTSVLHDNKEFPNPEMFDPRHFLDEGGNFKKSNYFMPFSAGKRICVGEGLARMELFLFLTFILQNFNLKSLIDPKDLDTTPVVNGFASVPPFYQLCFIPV
Sequence of CYP2C9 (P11712 whole entry): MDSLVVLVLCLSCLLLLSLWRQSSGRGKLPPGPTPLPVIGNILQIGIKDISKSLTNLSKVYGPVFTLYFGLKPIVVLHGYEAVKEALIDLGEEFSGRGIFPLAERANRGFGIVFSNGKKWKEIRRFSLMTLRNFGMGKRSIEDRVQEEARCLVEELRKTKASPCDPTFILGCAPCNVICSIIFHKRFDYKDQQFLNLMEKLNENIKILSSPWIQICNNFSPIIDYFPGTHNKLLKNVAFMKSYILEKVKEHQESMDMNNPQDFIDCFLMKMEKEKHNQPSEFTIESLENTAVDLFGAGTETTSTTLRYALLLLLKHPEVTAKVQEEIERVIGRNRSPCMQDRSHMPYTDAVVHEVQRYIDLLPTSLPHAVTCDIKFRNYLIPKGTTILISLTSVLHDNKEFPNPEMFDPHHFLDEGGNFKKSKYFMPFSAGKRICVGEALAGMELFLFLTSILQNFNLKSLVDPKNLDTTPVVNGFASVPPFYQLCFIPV

Structure (SMILES): Cc1cc(C)cc(OCC2CNC(=O)O2)c1 (centres unmarked) [metaxalone, 5-[(3,5-dimethylphenoxy)methyl]-2-oxazolidinone]
- % Turnover Mean (CYP2C9; 0.75 μM metaxalone, 5 pmol cyp): 1.6%
- [metaxalone] Mean (CYP2C9; 0.75 μM metaxalone, 5 pmol cyp): 0.779 µM
- % Turnover % (CYP2C9; 0.75 μM metaxalone, 5 pmol cyp): 6.1% and 5.4% and −6.8%
- [metaxalone] (CYP2C9; 0.75 μM metaxalone, 5 pmol cyp): 0.743 µM and 0.749 µM and 0.845 µM
- % Turnover Mean (CYP2C9; [1]): 2.4%
- [metaxalone] Mean (CYP2C9; [1]): 0.772 µM
- % Turnover % (CYP2C9; [1]): 8.7% and 4.0% and −5.4%
- [metaxalone] (CYP2C9; [1]): 0.722 µM and 0.760 µM and 0.834 µM
- % Turnover Mean (CYP2C9; 7.5 μM metaxalone, 5 pmol cyp): 7.9%
- [metaxalone] Mean (CYP2C9; 7.5 μM metaxalone, 5 pmol cyp): 7.78 µM
- % Turnover % (CYP2C9; 7.5 μM metaxalone, 5 pmol cyp): 14.3% and 2.9% and 6.4%
- [metaxalone] (CYP2C9; 7.5 μM metaxalone, 5 pmol cyp): 7.24 µM and 8.20 µM and 7.90 µM
- % Turnover Mean (CYP2C9; 7.5 μM metaxalone, 20 pmol cyp): 3.7%
- [metaxalone] Mean (CYP2C9; 7.5 μM metaxalone, 20 pmol cyp): 8.13 µM
- % Turnover % (CYP2C9; 7.5 μM metaxalone, 20 pmol cyp): −1.1% and 1.6% and 10.7%
- [metaxalone] (CYP2C9; 7.5 μM metaxalone, 20 pmol cyp): 8.54 µM and 8.31 µM and 7.54 µM
- Substrate (CYP2C9; CYP isozyme 2C9, summary of studies): +
- inhibition of CYP activity at a statistically significant level (CYP2C19; 0.3-100 μM metaxalone, p≦0.05): inhibited
- Inhibitor (CYP2C19; CYP isozyme 2C19, summary of studies): +
- Percent of VC (CYP2C19; metaxalone 0.3 μM): 84.6%
- Specific Activity Individual (CYP2C19; metaxalone 0.3 μM): 19.4 pmol/min/mg protein and 18.9 pmol/min/mg protein
- Specific Activity Mean ± SD (CYP2C19; metaxalone 0.3 μM): 19.0 ± 0.399 pmol/min/mg protein
- Percent of VC (CYP2C19; metaxalone 1 μM): 67.0%
- Specific Activity Individual (CYP2C19; metaxalone 1 μM): 14.8 pmol/min/mg protein
- Specific Activity Mean ± SD (CYP2C19; metaxalone 1 μM): 15.0 ± 0.186 pmol/min/mg protein
- Percent of VC (CYP2C19; metaxalone 3 μM): 67.7%
- Specific Activity Individual (CYP2C19; metaxalone 3 μM): 15.5 pmol/min/mg protein and 14.8 pmol/min/mg protein
- Specific Activity Mean ± SD (CYP2C19; metaxalone 3 μM): 15.2 ± 0.317 pmol/min/mg protein
- Percent of VC (CYP2C19; metaxalone 30 μM): 63.8%
- Specific Activity Individual (CYP2C19; metaxalone 30 μM): 11.1 pmol/min/mg protein and 16.5 pmol/min/mg protein and 15.3 pmol/min/mg protein
- Specific Activity Mean ± SD (CYP2C19; metaxalone 30 μM): 14.3 ± 2.82 pmol/min/mg protein
- Percent of VC (CYP2C19; metaxalone 100 μM): 64.9%
- Specific Activity Individual (CYP2C19; metaxalone 100 μM): 14.5 pmol/min/mg protein and 14.8 pmol/min/mg protein and 14.3 pmol/min/mg protein
- Specific Activity Mean ± SD (CYP2C19; metaxalone 100 μM): 14.5 ± 0.274 pmol/min/mg protein
- Mean Conc. (CYP2C8; 0.75 μM): 0.719 µM
- Mean Conc. (CYP2C8; 7.5 μM): 8.19 µM
- % Turnover Mean (CYP2C8; 0.75 μM): 6.78%
- % Turnover Mean (CYP2C8; 7.5 μM): 3.77%
